Test results taken from US12703693B2, “Crystalline forms of N-{3-[(1S)-1-{[6-(3,4-dimethoxyphenyl)pyrazin-2-yl]amino}ethyl]phenyl}-5-methylpyridine-3-carboxamide and related products and methods” (GB002, INC., priority 2021, dated 2026).
≈ marks a conversion by molar mass, not a printed value. Where “and” joins values, the source holds several entries; their conditions need not be identical. Equal values may be shown once. Marks after values point to notes of the source that are not given here.

Tests used:
[1] = Particle size distribution (PSD) of micronized / spray dried material; format: physicochemical; details: for Dv10 (μm) 1 / Dv50 (μm) 1 / Dv90 (μm) 1 / SPAN1 / Dv10 (μm) 2 / Dv50 (μm) 2 / Dv90 (μm) 2 / SPAN 2: wet polished (wet milled + spray dried) Compound 1 Form A; for Dv10 (μm) 1 / Dv50 (μm) 1 / Dv90 (μm) 1 / SPAN1: PSD set 1; for Dv10 (μm) 2 / Dv50 (μm) 2 / Dv90 (μm) 2 / SPAN 2: PSD set 2
Excerpt: Crystalline Compound 1 Form A was fed into a grinding chamber tangentially by vacuum created by the venturi system using pressurized nitrogen (venturi pressure, Pvent, above grind pressure, Pgrind). Compressed nitrogen was also used for the jet nozzles in the walls of the chamber. The feed flow rate was set and controlled automatically (by a gravimetric feeder) or manually. Once inside the milling chamber particles were accelerated by a series of perimeter jets, in a spiral movement. The compressed fluid issuing from the nozzles expands from Pgrind and imparts very high rotational speeds in the chamber. The micronizing effect occurs when the slower incoming particles and the faster particles in the spiral path collide. While centrifugal force retains the larger particles at the periphery of the milling chamber, the smaller particles exit with the exhaust gas from the center of the chamber. Five 20 g trials were performed in a 1.5″ jet mill, under varying feed rates (Ffeed,JM,) and pressures; the optimal conditions were used for a sixth larger scale 50 g trial.
Aqueous suspensions of crystalline Compound 1 Form A in water (5% w/w or 10% w/w) were processed via microfluidization with a HPH18 (M-110EH-30 Microfluidics Pilot) wet milling apparatus equipped with an auxiliary processing module (200 μm) and an interaction chamber (Z-shape, 100 μm). The unit was initiated at a given pressure for the first five cycles to perform a pre-milling of the suspension, using only the auxiliary processing module (200 μm). The interaction chamber (100 μm) was then introduced and the suspension processed at a defined pressure. The temperature was controlled, using a reactor jacket, and recorded. To address clogging of the micronization chambers (observed after ~25 cycles), the pressure was increased from 25 to 60 bar.
The material isolated from the first run 1A, was dived into three (1BI, 1BII and 1BIII); runs 2A and 3A were spray dried to produce samples 2B and 3B, respectively. […] Runs 2B and 3B were additionally characterized for specific surface area (SSA). See Table 27 (runs 1BI, 1BII and 1BIII) and Table 28 (runs 2B and 3B) for conditions and product characterization. […]
Two 250 g batches of crystalline Compound 1 Form A were each suspended in water (5 L) and wet polished in a wet milling HPH18 (M-110EH-30 Microfluidics Pilot) apparatus, equipped with an auxiliary processing module (200 μm) and an interaction chamber (Z-shape, 100 μm). The unit was initiated at 50 bar for the first five cycles to perform a pre-milling of the suspension, using only the auxiliary processing module (200 μm). The interaction chamber (100 μm) was then introduced and the suspension processed at 50 bar (increased to 60 or 70 bar if the system clogged). The temperature was maintained at 18-28° C. using a reactor jacket. The Reactor agitation speed was 280 RPM (batch 1) and 390 RPM (batch 2). The first batch was micronized for 25 cycles and particle size distribution analyzed after 5, 15 and 20 cycles; the second batch was micronized for […] and particle size distribution analyzed after 15, 20, 25 and 35 cycles.
Both batches were then spray dried (separately) using a Büchi spray dryer, using an open loop system. The unit was equipped with a two-fluid nozzle: cap and orifice diameters of 1.5 and 0.7 mm, respectively operated with nitrogen. The aspirator, blowing nitrogen, was set at 100% capacity (~40 kg/h). The suspension feed flow was set to 8 ml/min, high and the drying outlet temperature to 75±1° C. […] Total yield (both batches combined) was 267 g (53%).
Two 250 g batches (250 g and 238 g; 488 g total) of crystalline Compound 1 Form A coated with ~2% L-leucine were each suspended in water (5 L) and wet polished in a wet milling HPH18 (M-110EH-30 Microfluidics Pilot) apparatus, under the same process as described in the previous example. The first batch was micronized for 25 cycles and the second for 30 cycles. […]

[2] = Product characterization of micronized / spray dried powder (XRPD, amorphous content, water content by KF, assay and related substances, SSA); format: physicochemical; details: for KF: water content
Excerpt: The final spray dried product was characterized for assay and related substances, PSD, water content by KF and XRPD and the results shown in Table 43. The two sub-batches were blended to obtain the final product, with a total final yield was 137 g (68%), see Table 44.

[3] = as above; format: physicochemical
[4] = Solubility in 25 mM phosphate buffer pH 7.4
Method: (§1) Phosphate Buffer contained NaH2PO4·H2O (0.345 g), sodium hydroxide aqueous solution (0.2M, 10.001 mL), sodium chloride (0.576 g) and water (qs ad 100.0 mL); • Ethanol/Water (30/70) contained Ethanol (30.0 g) and Water (70.0 g); • Ethanol/Water (40/60) contained Ethanol (40.0 g) and Water (60.0 g); • Ethanol/Water (50/50) contained Ethanol (50.0 g) and Water (50.0 g); and • Ethanol/Water (45/55) contained Ethanol (4.50 g) and Water (5.51 g).

[5] = Solubility in ethanol/water mixtures; details: for solubility / solubility at 4 h / solubility at 24 h: 22 °C, aqueous with cosolvent or surfactant or cyclodextrin, thermodynamic from solid
Method: as §1

[6] = Sample stress, 40° C. and 75% relative humidity, XRPD; format: physicochemical; details: open vial, 6 days
Method: Two samples, one containing pure crystalline Form A of Compound 1 and a second containing a mixture of crystalline Forms A and B of Compound 1 were placed in an open vial at 40° C. and 75% relative humidity for 6 days and then analyzed by XRPD. The results are presented in Table 11; no changes by XRPD were observed.

[7] = Solubility in ethyl acetate and ethyl acetate+2% water (Crystal16 parallel crystallizer); format: physicochemical
Method: The solubility of crystalline Forms A and B of Compound 1 in ethyl acetate was determined using a Crystal16® parallel crystallizer. Two heating rates were used, 1° C./min and 0.5° C./min. The suspensions were heated to 78° C. and cooled to 10° C. at 0.2° C./min and maintained for 2 h at 10° C. […] The suspensions were heated to 78° C. at 1° C./min, cooled to 10° C. at 0.2° C./min and maintained for 2 h at 10° C. FIG. 15 compares the resulting solubility curve with the pure ethyl acetate.

[8] = Compound 1 alone after wet milling, BATCH 01: 20 cycles/P = 50 bar, BATCH 02: 35 cycles/P = 70 bar
[9] = final product, Compound 1 alone, wet polished and spray dried
[10] = jet milled crystalline Compound 1 Form A, label = jet mill run
[11] = Compound 1 alone, spray dried, individual batch analyses, cyclone 1
[12] = Compound 1 alone, spray dried, individual batch analyses, cyclone 2
[13] = wet polished (wet milled + spray dried) Compound 1 Form A
[14] = EtOH/H2O (w:w) 50:50, top layer after centrifugation, 22° C.
[15] = wet milled aqueous suspension of Compound 1 Form A, cycles/pressure: 1A 30/60 bar, 2A 45/50 bar, 3A 30/50 bar

## COc1ccc(-c2cncc(N[C@@H](C)c3cccc(NC(=O)c4cncc(C)c4)c3)n2)cc1OC [BATCH 01]
[1]; [8]
  Dv10: 0.2 μm
  Dv50: 0.5 μm
  Dv90: 1.7 μm

## COc1ccc(-c2cncc(N[C@@H](C)c3cccc(NC(=O)c4cncc(C)c4)c3)n2)cc1OC [BATCH 02]
[1]; [8]
  Dv10: 0.3 μm
  Dv50: 0.8 μm
  Dv90: 3.4 μm

## COc1ccc(-c2cncc(N[C@@H](C)c3cccc(NC(=O)c4cncc(C)c4)c3)n2)cc1OC [Compound 1, N-{3-[(1S)-1-{[6-(3,4-dimethoxyphenyl)pyrazin-2-yl]amino}ethyl]phenyl}-5-methylpyridine-3-carboxamide]
[2]; [9]
  Bulk density: 0.10 g/mL
  KF (water content): 0.3 % w/w
  XRPD: Form A
[3]; [9]
  Amorphous content by DSC: <10 % w/w
[3]; [10]
  Amorphous content by DSC: 46 % w/w
  Assay: 97.70 % LC
  Impurities: 1.10 % area
  Water content KF: 1.4 % w/w
  XRPD: P + A
[3]; jet milled crystalline Compound 1 Form A, label = jet mill run, in m2/g (unit assumed)
  Specific Surface Area by BET: 10.35
[1]; [11]
  Dv10: 0.1 μm and 0.3 μm
  Dv50: 0.4 μm and 0.5 μm
  Dv90: 3.1 μm and 1.5 μm
  SPAN: 7.2 and 2.1
[1]; [12]
  Dv10: 0.1 μm and 0.3 μm
  Dv50: 0.4 μm and 0.5 μm
  Dv90: 2.9 μm and 1.4 μm
  SPAN: 7.9 and 2.0
[1]; [9]
  Dv10: 0.3 μm
  Dv50: 0.6 μm
  Dv90: 3.3 μm
  SPAN: 4.7
[1]; [10]
  Dv10: 0.4 μm
  Dv50: 1.2 μm
  Dv90: 2.8 μm
  SPAN: 2.0

## COc1ccc(-c2cncc(N[C@@H](C)c3cccc(NC(=O)c4cncc(C)c4)c3)n2)cc1OC [Compound 1BIII]
[2]; [13]
  KF: 0.1 % w/w
  Amorphous content: <10 % w/w
  Assay: 99.40 % LC
  Impurities: 1.10 % area
  XRPD: Crystalline
[1]
  Dv10 (μm) 1: 1.7 μm
  Dv50 (μm) 1: 3.4 μm
  Dv90 (μm) 1: 6.6 μm
  SPAN1: 1.4
  Dv10 (μm) 2: 1.4 μm
  Dv50 (μm) 2: 3.1 μm
  Dv90 (μm) 2: 6.6 μm
  SPAN 2: 1.7

## COc1ccc(-c2cncc(N[C@@H](C)c3cccc(NC(=O)c4cncc(C)c4)c3)n2)cc1OC [Compound 1BII]
[2]; [13]
  KF: 0.2 % w/w
  Amorphous content: <10 % w/w
  Assay: 102.0 % LC
  Impurities: 0.9 % area
  XRPD: Crystalline
[1]
  Dv10 (μm) 1: 1.7 μm
  Dv50 (μm) 1: 3.3 μm
  Dv90 (μm) 1: 6.3 μm
  SPAN1: 1.4
  Dv10 (μm) 2: 1.3 μm
  Dv50 (μm) 2: 3 μm
  Dv90 (μm) 2: 6.1 μm
  SPAN 2: 1.6

## COc1ccc(-c2cncc(N[C@@H](C)c3cccc(NC(=O)c4cncc(C)c4)c3)n2)cc1OC [Compound 1BI]
[2]; [13]
  KF: 0.5 % w/w
  Amorphous content: <10 % w/w
  Assay: 98.9 % LC
  Impurities: 1.1 % area
  XRPD: Crystalline
[1]
  Dv10 (μm) 1: 1.8 μm
  Dv50 (μm) 1: 3.5 μm
  Dv90 (μm) 1: 6.6 μm
  SPAN1: 1.4
  Dv10 (μm) 2: 1.5 μm
  Dv50 (μm) 2: 3.3 μm
  Dv90 (μm) 2: 6.7 μm
  SPAN 2: 1.6

## COc1ccc(-c2cncc(N[C@@H](C)c3cccc(NC(=O)c4cncc(C)c4)c3)n2)cc1OC [Compound 3B-2F]
[1]
  Dv10 (μm) 2: 1.3 μm
  Dv50 (μm) 2: 3.7 μm
  Dv90 (μm) 2: 14.7 μm
  SPAN 2: 3.6

## COc1ccc(-c2cncc(N[C@@H](C)c3cccc(NC(=O)c4cncc(C)c4)c3)n2)cc1OC [Crystalline]
[4]; 25 mM phosphate buffer pH 7.4, equil time 4 hrs
  solubility: 3.16 µg/mL (≈ 0.00673 mM)
[4]; 25 mM phosphate buffer pH 7.4, equil time 24 hrs
  solubility: 3.05 µg/mL (≈ 0.0065 mM)
[5]; EtOH/H2O (w:w) 40:60, 22° C.
  Solubility 4 Hours: 18900 µg/mL (≈ 40.3 mM)
  Solubility 24 Hours: 18.3 mg/mL (≈ 39 mM)
  Solubility Average: 18600 µg/mL (≈ 39.6 mM)
[5]; EtOH/H2O (w:w) 45:55, 22° C.
  Solubility 4 Hours: 53300 µg/mL (≈ 114 mM)
  Solubility 24 Hours: 43.3 mg/mL (≈ 92.2 mM)
  Solubility Average: 48300 µg/mL (≈ 103 mM)
[5]; EtOH/H2O (w:w) 50:50, bottom layer after centrifugation, 22° C.
  Solubility 4 Hours: 222000 µg/mL (≈ 473 mM)
[5]; EtOH/H2O (w:w) 50:50, bottom layer after centrifugation, 22° C., result outside calibration curve
  Solubility 24 Hours: 362* mg/mL
[5]; [14]
  Solubility 4 Hours: 125000 µg/mL (≈ 266 mM)
  Solubility 24 Hours: 177 mg/mL (≈ 377 mM)

## COc1ccc(-c2cncc(N[C@@H](C)c3cccc(NC(=O)c4cncc(C)c4)c3)n2)cc1OC [Form A + form B (minor)]
[6]
  XRPD observation after stress conditions: No change - Form A +

## COc1ccc(-c2cncc(N[C@@H](C)c3cccc(NC(=O)c4cncc(C)c4)c3)n2)cc1OC [Form B, N-{3-[(1S)-1-{[6-(3,4-dimethoxyphenyl)pyrazin-2-yl]amino}ethyl]phenyl}-5-methylpyridine-3-carboxamide]
[7]; ethyl acetate and ethyl acetate+2% water (both systems)
  solubility compared with the other crystalline form: slightly less soluble
[7]; presence of water (2%)
  solubility in ethyl acetate+2% water compared to pure ethyl acetate: significantly more soluble

## CC(C)C[C@H](N)C(=O)O [L-Leucine]
[5]; ethanol/water 30:70 (w:w)
  solubility: 7360 µg/mL (≈ 56.1 mM)
  solubility at 4 h: 7470 µg/mL (≈ 56.9 mM)
  solubility at 24 h: 7260 µg/mL (≈ 55.3 mM)
[5]; ethanol/water 40:60 (w:w)
  solubility: 5880 µg/mL (≈ 44.8 mM)
  solubility at 4 h: 6040 µg/mL (≈ 46 mM)
  solubility at 24 h: 5710 µg/mL (≈ 43.5 mM)
[5]; ethanol/water 50:50 (w:w)
  solubility: 5070 µg/mL (≈ 38.7 mM)
  solubility at 4 h: 4720 µg/mL (≈ 36 mM)
  solubility at 24 h: 5410 µg/mL (≈ 41.2 mM)

## COc1ccc(-c2cncc(N[C@@H](C)c3cccc(NC(=O)c4cncc(C)c4)c3)n2)cc1OC [Run 1A]
[1]; [15]
  Dv10: 1.7 μm
  Dv50: 3.2 μm
  Dv90: 6 μm

## COc1ccc(-c2cncc(N[C@@H](C)c3cccc(NC(=O)c4cncc(C)c4)c3)n2)cc1OC [Run 2A]
[1]; [15]
  Dv10: 1.3 μm
  Dv50: 2.7 μm
  Dv90: 4.8 μm

## COc1ccc(-c2cncc(N[C@@H](C)c3cccc(NC(=O)c4cncc(C)c4)c3)n2)cc1OC [Run 3A]
[1]; [15]
  Dv10: 0.1 μm
  Dv50: 1.0 μm
  Dv90: 3.5 μm
